Data as given in publication PMC7567501 (Journal of Enzyme Inhibition and Medicinal Chemistry, 2019).
Read-outs that look alike come from different tables or passages of the source.

What was measured:
Aβ1-42 [1] = molecular target: T1, Aβ1-42 (Homo sapiens, UniProt P05067); experiment: biochemical; settings: read-out: Aβ aggregation inhibition, Self-Aβ aggr
T1 construct: Amyloid β-peptide (1–42), Aβ1-42, was purchased from GeneCust; purchased GeneCust
Source text: (§1) The Aβ amyloid plaques are one of the main hallmarks of AD and they result from over production and aggregation of β-amyloid peptide, which can accumulate outside the neurons, by self-mediated or Cu^2+-induced process, interfering with the synaptic impairment, neurotransmission and memory. Therefore, anti-AD drugs have been designed aimed to disrupt and disaggregate the Aβ’s fibrils into monomers, obtaining non-toxic forms of β-secretase’s products. To assess the effect of these new hybrids in the inhibition of amyloid peptide aggregation, a selection of the compounds was in vitro assayed, based on the thioflavin T (ThT) method. Indeed ThT is a histochemical dye able to create ionic or hydrophobic interactions with the peptide β–sheets, the predominant secondary structure of the amyloid fibrils in aqueous solutions[36]. This binding interactions can be monitored by fluorimetry since the presence of ThT-fibrils increases the absorbance and the emission of the ThT dye, and induces red shifts on the absorbance (from 385 to 446 nm) and emission peaks (from 445 to 485 nm)[14]. All the measurements were performed after incubation of the self-mediated and Cu^2+-induced Aβ aggregates in the presence/absence of the herein studied compounds. […]. […] This may be rationalised on the basis of their copper chelating capacity, as previously shown by other metal chelating compounds[14]^,[38]. Furthermore, despite some exceptions (e.g. 20 and 24), the increase in linker length and the chloro TAC substitution induce some small negative effects in the inhibition of Aβ self-aggregation.
(§2) For the study of the β-amyloid (Aβ) aggregation, the ThT fluorescence assay was performed using a Varian Cary Eclipse fluorimeter at the following wavelengths: excitation (446 nm) and emission (485 nm). Amyloid β-peptide (1–42), Aβ1-42, was purchased from GeneCust as a lyophilised powder stored at −20 °C. TEM assays were performed with a Hitachi H8100 transmission electron microscope with a LaB6 filament (200 kV, 10000–20000 × magnification) at MicroLab/IST.
(§3) Among all the methods to measure the aggregation of Aβ1-42, the assay based on Thioflavin T (ThT) is the standard procedure based on the fluorescence of this dye[49]^,[50]. This test is performed with Aβ1-42 peptide previously prepared by dissolving it in 1,1,1,3,3,3–hexafluoro-2-propanol (HFIP), an organic solvent useful to solubilise and monomerize the β–sheet protein aggregates and reserve them in the fridge. Films are re-dissolved in an Eppendorf tube with a fresh solution of a mixture of CH3CN/Na2CO3/NaOH, to have a stable stock solution, and afterwards, added to an optimised fibrillation phosphate buffer. The samples were prepared using MeOH (1 mg/mL) as solvent, followed by incubation in a water bath for 24 h at 37 °C with gentle shaking. After incubation, the samples were added to a 96-well plate (BD Falcon) with 180 µL of 5 µM ThT in 50 mM glycine-NaOH (pH 8.5) buffer. Blank samples were prepared for each concentration in a similar way, devoid of peptide. After 5-min incubation with the dye, the ThT fluorescence was measured at 446 nm (excitation) and 485 nm (emission).

Aβ1-42 [2] = molecular target: T1, Aβ1-42; experiment: Inhibition of Cu2+-induced Aβ1-42 aggregation, thioflavin T fluorescence; assay type: biochemical; settings: Aβ42 aggregation with copper (40 µM); inhibitor 80 µM; ThT fluorescence; read-out: Aβ aggregation inhibition, Cu-ind Aβ aggr
Source text: as §1, §2
as §3, with “The samples were prepared using MeOH (1 mg/mL) as solvent, followed by incubation in a water bath for 24 h at 37 °C with gentle shaking. After incubation, the samples were added to a 96-well plate (BD Falcon) with 180 µL of 5 µM ThT in 50 mM glycine-NaOH (pH 8.5) buffer. Blank samples were prepared for each concentration in a similar way, devoid of peptide.” left out

AChE = molecular target: T2, AChE (Electrophorus electricus, UniProt O42275); experiment: biochemical; parameters: species or system Electrophorus electricus (electric eel)
T2 construct: extracted from Electrophorus electricus (electric eel); purchased Sigma-Aldrich; host or cells: Electrophorus electricus (extracted)
T2 sequence (O42275 24-633): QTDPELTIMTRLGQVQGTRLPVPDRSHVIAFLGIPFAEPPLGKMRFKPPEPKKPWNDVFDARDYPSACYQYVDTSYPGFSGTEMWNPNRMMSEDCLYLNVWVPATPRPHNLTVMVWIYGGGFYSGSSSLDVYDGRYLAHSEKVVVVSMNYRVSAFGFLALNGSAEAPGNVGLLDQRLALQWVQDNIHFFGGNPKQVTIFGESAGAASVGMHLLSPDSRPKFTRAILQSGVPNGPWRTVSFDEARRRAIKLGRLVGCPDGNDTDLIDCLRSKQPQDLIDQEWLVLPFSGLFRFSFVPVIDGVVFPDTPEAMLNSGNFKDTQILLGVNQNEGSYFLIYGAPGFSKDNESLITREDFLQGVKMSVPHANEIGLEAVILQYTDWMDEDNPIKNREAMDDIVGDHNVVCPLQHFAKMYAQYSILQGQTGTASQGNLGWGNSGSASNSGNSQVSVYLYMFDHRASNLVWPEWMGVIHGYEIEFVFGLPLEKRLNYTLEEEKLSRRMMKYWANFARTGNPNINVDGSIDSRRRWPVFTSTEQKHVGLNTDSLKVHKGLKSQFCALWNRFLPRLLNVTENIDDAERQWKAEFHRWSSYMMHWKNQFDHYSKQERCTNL
Protocol: The electronic spectra and the AChE inhibition assays were performed in a 1-cm path length quartz cell with a Perkin Elmer Lambda 35 spectrophotometer equipped with a temperature programmer PTP1 + 1 Peltier System (T = 25.0 ± 0.1 °C). The enzyme AChE 500 U, extracted from Electrophorus electricus (electric eel), was purchased from Sigma-Aldrich.
The enzymatic activity of AChE was determined using an adaptation of the Ellman’s method, as described previously[29]^,[32]. Firstly, a stock solution of AChE was prepared by dissolving enzyme 500 U in 10 mL of tris(hydroxymethyl)aminomethane (TRIS) buffer (50 mM, pH 8). Then, 4–(2-hydroxyethyl)-1-piperazineethanesulfonic acid (HEPES) buffer was used for further dilution of the enzyme solution therefore obtaining the final working solution of AChE. The assay solution consisted of 374 µL of HEPES buffer (50 mM and pH 8.0), a variable volume (10–50 µL) of the compound’s stock solution (1 mg/mL of MeOH), 476 µL of 3 mM bis(3-carboxy-4-nitrophenyl) disulphide (DTNB), 25 µL of AChE stock solution and the necessary amount of methanol to attain the same volume of sample mixture in a 1 mL cuvette. After mixing, samples were left to incubate for 15 min and then 75 µL of 16 mM acetylthiocholine iodide (AChI) solution was added and immediately the reaction was monitored at 405 nm for 5 min. Firstly, enzyme activity was determined by measuring the rate of enzymatic reaction in solution by recording absorbance (with or without enzyme) at 405 nm. To calculate the percent inhibition of AChE, the enzyme activity in the presence of increasing concentrations of the test compound, as well as for a blank reaction (methanol without compounds), were measured at 405 nm.
Where v1is the initial reaction rate in the presence of the inhibitor and v0 is the initial rate of the control reaction. The curves of inhibition were obtained using a plot of percentage of enzymatic inhibition versus inhibitor concentration, and a calibration curve was obtained from which the linear regression parameters were obtained.

SH-SY5Y cells = experiment: Dose-response screening for non-toxic concentrations, MTT reduction assay; assay type: cell-based, human; settings: 10 µM to 40 µM, 25 h
Protocol: The neuroprotective effect of these new multi-target drugs designed for AD was evaluated using SH-SY5Y cells treated with Aβ1-42 peptides or ascorbate/iron. For each compound we performed a dose-response curve to select a non-toxic concentration (Figure 7).
Figure 7. Dose-response screening to select non-toxic concentrations of TAC-BF hybrids. Cells were treated with varying concentration of TAC-BF conjugates (from 10 μM to 40 μM) for 25 h and cell viability was determined using the MTT reduction assay.
SH-SY5Y human neuroblastoma cell line (ATCC-CRL-2266) is grown in Dulbecco’s modified Eagle’s medium (DMEM), and were obtained from Gibco-Invitrogen (Life Technologies Ltd, UK) with 10% heat inactivated foetal calf serum, containing 50 U/mL penicillin and 50 µg/mL streptomycin, under a humidified atmosphere of 95% air- 5% CO2 at 37 °C. Cells were plated at 0.12 × 10^6 cells/mL for cell viability assay. The tested compounds (18, 19, 20, 21, 23 and 24) were dissolved in DMSO at a concentration of 50 mM and aliquots were stored at −20 °C. We performed a dose-response screening (from 10 µM to 40 µM) in order to choose the highest non-toxic concentration. As a result we selected: 20 µM final concentrations for compounds 18, 19, 20 and 23; 20 µM final concentration for compound 19; 35 µM final concentration for compounds 21 and 24. […] The compounds were added to the cell media 1 h before the incubation with Aβ1-42 or L-ascorbic acid/ferrous sulphate. Aβ1-42 or L-ascorbic acid/ferrous sulphate where incubated alone or with the compound for an additional 24 h. Aβ1-42 was prepared as 276.9 µM stock in sterile water and added to the medium at 2.5 µM final concentration. Ferrous sulphate was freshly prepared as 0.36 M stock in water and added to the medium at 500 µM final concentration. L-Ascorbic Acid was freshly prepared as 80 mM stock in water and added to the medium at 5 mM final concentration. Aβ1-42 was purchased from Bachem (Torrance, CA, USA) and ferrous sulphate and L-ascorbic acid from Sigma Chemical Co (St. Louis, MO, USA).
Cell viability was determined by the MTT (3–(4,5-dimethylthiazol-2-yl)-2,5-diphenyltetrazolium bromide) reduction test. In viable cells, the enzyme succinate dehydrogenase metabolises MTT into a formazan that absorbs light at 570 nm. Following the cell treatment protocol, the medium was aspirated and 0.5 mL MTT (0.5 mg/mL) was added to each well. The plate was then incubated at 37 °C for 1 h 30 min protected from light. At the end of the incubation period, the formazan precipitates were solubilised with 0.5 mL of acidic isopropanol (0.04 M HCl/isopropanol). The absorbance was measured at 570 nm[51]. Cell reduction ability was expressed as a percentage of untreated control cells.

[3] = Radical scavenging (anti-oxidant) activity, DPPH method; assay type: physicochemical; settings: DPPH in methanol, 30 min, room temperature
Protocol: A selection of the newly synthesised hybrids was tested for their radical scavenging activity (anti-oxidant activity, EC50), based on their interaction with the 2,2-diphenyl-1-picrylhydrazyl (DPPH) free radical, as previously described.
The anti-oxidant capacity or, more precisely, radical scavenging activity based on the electron and proton donation ability, was evaluated by the DPPH method previously described[29]^,[46]. To a 2.5 mL solution of DPPH (0.002%) in methanol, solutions of each compound were added in different volumes to obtain different concentrations in a 3.5 mL final volume. The samples were incubated for 30 min at room temperature. The absorbance was measured at 517 nm against the corresponding blank (methanol). The antioxidant activity was calculated by Eq. (1)^29. (1) %AA = ((ADPPH−Asample)/ADPPH) × 100
The tests were carried out in triplicate. The compound concentration providing 50% of antioxidant activity (EC50) was obtained by plotting the antioxidant activity against the compound concentration.

[4] = self-mediated Aβ42 aggregation without copper, inhibitor 80 µM, ThT fluorescence
[5] = AChE from Electric eel, mean of five independent experiments, read-out: AChE inhibition IC50

T1 sequence (P05067 672-713 limits assumed): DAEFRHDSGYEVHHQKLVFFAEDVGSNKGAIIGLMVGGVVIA

Row | Compound | inhibition at 80 µM (Aβ1-42 [1]; [4]) [%] | IC50 (AChE; [5]) [nM] | further results
1 | O=C(NCCCCNc1c2c(nc3ccccc13)CCCC2)c1cc2cccc(O)c2o1 [Compound 22, 7-Hydroxy-N-(4-((1,2,3,4-tetrahydroacridin-9-yl)amino)butyl)benzofuran-2-carboxamide] | 30.4 | 980 | inhibition at 80 µM (Aβ1-42 [2]): 54%
2 | O=C(NCCCNc1c2c(nc3cc(Cl)ccc13)CCCC2)c1cc2ccccc2o1 [Compound 15, N-(3-((6-chloro-1,2,3,4-tetrahydroacridin-9-yl)amino)propyl)benzofuran-2-carboxamide] | 51 | 120 | –
3 | O=C(NCCCNc1c2c(nc3ccccc13)CCCC2)c1cc2ccccc2o1 [Compound 13, N-(3-((1,2,3,4-tetrahydroacridin-9-yl)amino)propyl)benzofuran-2-carboxamide] | 60.6 | 580 | –
4 | O=C(NCCCCNc1c2c(nc3ccccc13)CCCC2)c1cc2ccccc2o1 [Compound 14, N-(4-((1,2,3,4-tetrahydroacridin-9-yl)amino)butyl)benzofuran-2-carboxamide] | 51.5 | 720 | –
5 | COc1cccc2cc(C(=O)NCCCCNc3c4c(nc5ccccc35)CCCC4)oc12 [Compound 18, 7-Methoxy-N-(4-((1,2,3,4-tetrahydroacridin-9-yl)amino)butyl)benzofuran-2-carboxamide] | – | – | highest non-toxic concentration selected from dose-response screening (SH-SY5Y cells): 20 µM; inhibition at 80 µM (Aβ1-42 [1]): 51.9%; IC50 (AChE): 760 nM
6 | Nc1c2c(nc3ccccc13)CCCC2 [TAC, tacrine, reference compound] | – | – | Radical scavenging activity EC50 (DPPH) [3]: weak activity; inhibition at 80 µM (Aβ1-42 [1]): 20%
7 | COc1cccc2cc(C(=O)NCCCNc3c4c(nc5ccccc35)CCCC4)oc12 [Compound 17, 7-Methoxy-N-(3-((1,2,3,4-tetrahydroacridin-9-yl)amino)propyl)benzofuran-2-carboxamide] | 57.5 | 360 | –
8 | O=C(NCCCCNc1c2c(nc3cc(Cl)ccc13)CCCC2)c1cc2ccccc2o1 [Compound 16, N-(4-((6-chloro-1,2,3,4-tetrahydroacridin-9-yl)amino)butyl)benzofuran-2-carboxamide] | 43 | 340 | –
